Legend:
Assay type in all cases: physicochemical
[1] = Excipient compatibility: rifaximin solutions stored at various temperatures, chemical purity by HPLC; conditions: rifaximin in named solvent
[2] = Compatibility of individual excipients with hard gelatin capsule shells; conditions: Hard Gel Capsules
Description: (§1) The physical compatibility of individual excipients with gelatin shell matrix was investigated. For hard gelatin capsules, solvent was filled into hard capsules and placed in scintillation vials. For soft gelatin capsules, each capsule was dipped into the excipient and then placed in scintillation vials. The vials were then subjected to various temperature conditions for up to 4 weeks. Capsules were then evaluated for physical changes (softening or hardening of capsule shell).
(§2) Hard gel capsules were purchased from VWR (catalogue number 70102) with a volume of 0.68 mL, diameter of 6.63 mm, a length of 19.0 mm and size 1. Soft gel capsules were Advil liquid-gels, 200 mg strength, 80 counts.

[3] = Compatibility of individual excipients with soft gelatin capsule shells; conditions: Soft Gel Capsules
Description: as §1, §2

In the case of `OCCOCCOCCO` [Triethylene glycol], the “Rifaximin % Label Claim (LC)” value ([1]; T0) is reported as 97.5 % Label Claim (LC), the “Rifaximin % Label Claim (LC)” value ([1]; T 2 weeks, 25° C.) is reported as 98.3 % Label Claim (LC) and the “Rifaximin % Label Claim (LC)” value ([1]; T 2 weeks, 40° C.) is reported as 96.7 % Label Claim (LC). For the same molecule, the “Rifaximin % Label Claim (LC)” value ([1]; T 2 weeks, 50° C.) was 95.6 % Label Claim (LC), the “Rifaximin % Label Claim (LC)” value ([1]; T 4 weeks, 25° C.) was 97.0 % Label Claim (LC) and the “Rifaximin % Label Claim (LC)” value ([1]; T 4 weeks, 40° C.) was 95.0 % Label Claim (LC). The “Rifaximin % Label Claim (LC)” value ([1]; T 4 weeks, 50° C.) was 92.5 % Label Claim (LC), the “Physical change (Yes or No)” value ([2]; T 2 weeks, 25° C.) was “Yes” and the “Physical change (Yes or No)” value ([2]; T 2 weeks, 40° C.) was “Yes”. The “Physical change (Yes or No)” value ([2]; T 4 weeks, 25° C.) was “Yes” and the “Physical change (Yes or No)” value ([2]; T 4 weeks, 40° C.) was “Yes”.
In the case of `CCCCCCCC/C=C\CCCCCCCCO` [Oleyl alcohol], the “Rifaximin % Label Claim (LC)” value ([1]; T0) is reported as 98.7 % Label Claim (LC), the “Rifaximin % Label Claim (LC)” value ([1]; T 2 weeks, 25° C.) is reported as 96.3 % Label Claim (LC) and the “Rifaximin % Label Claim (LC)” value ([1]; T 2 weeks, 40° C.) is reported as 97.1 % Label Claim (LC). The “Rifaximin % Label Claim (LC)” value ([1]; T 2 weeks, 50° C.) was 95.2 % Label Claim (LC), the “Rifaximin % Label Claim (LC)” value ([1]; T 4 weeks, 25° C.) was 96.9 % Label Claim (LC) and the “Rifaximin % Label Claim (LC)” value ([1]; T 4 weeks, 40° C.) was 95.0 % Label Claim (LC). The “Rifaximin % Label Claim (LC)” value ([1]; T 4 weeks, 50° C.) was 91.8 % Label Claim (LC), the “Physical change (Yes or No)” value ([2]; T 2 weeks, 25° C.) was “No” and the “Physical change (Yes or No)” value ([2]; T 2 weeks, 40° C.) was “No”. For the same molecule, the “Physical change (Yes or No)” value ([2]; T 4 weeks, 25° C.) was “No” and the “Physical change (Yes or No)” value ([2]; T 4 weeks, 40° C.) was “No”.
With `CCOCCOCCO` [diethylene glycol monoethyl ether] the “Rifaximin % Label Claim (LC)” value ([1]; T0) was 97.3 % Label Claim (LC), the “Rifaximin % Label Claim (LC)” value ([1]; T 2 weeks, 25° C.) was 96.1 % Label Claim (LC) and the “Rifaximin % Label Claim (LC)” value ([1]; T 2 weeks, 40° C.) was 89.3 % Label Claim (LC). For the same molecule, the “Rifaximin % Label Claim (LC)” value ([1]; T 2 weeks, 50° C.) was 81.5 % Label Claim (LC), the “Rifaximin % Label Claim (LC)” value ([1]; T 4 weeks, 25° C.) was 95.4 % Label Claim (LC) and the “Rifaximin % Label Claim (LC)” value ([1]; T 4 weeks, 40° C.) was 82.7 % Label Claim (LC). For the same molecule, the “Rifaximin % Label Claim (LC)” value ([1]; T 4 weeks, 50° C.) was 74.2 % Label Claim (LC).
For `CCOC(=O)CCCCCCCCC(=O)OCC` [Diethyl sebacate], the “Rifaximin % Label Claim (LC)” value ([1]; T0) was 102.7 % Label Claim (LC), the “Rifaximin % Label Claim (LC)” value ([1]; T 2 weeks, 25° C.) was 102.1 % Label Claim (LC) and the “Rifaximin % Label Claim (LC)” value ([1]; T 2 weeks, 40° C.) was 101.7 % Label Claim (LC). For the same molecule, the “Rifaximin % Label Claim (LC)” value ([1]; T 2 weeks, 50° C.) was 101.7 % Label Claim (LC), the “Rifaximin % Label Claim (LC)” value ([1]; T 4 weeks, 25° C.) was 101.1 % Label Claim (LC) and the “Rifaximin % Label Claim (LC)” value ([1]; T 4 weeks, 40° C.) was 98.8 % Label Claim (LC). For the same molecule, the “Rifaximin % Label Claim (LC)” value ([1]; T 4 weeks, 50° C.) was 99.8 % Label Claim (LC), the “Physical change (Yes or No)” value ([2]; T 2 weeks, 25° C.) was “No” and the “Physical change (Yes or No)” value ([2]; T 2 weeks, 40° C.) was “No”. For the same molecule, the “Physical change (Yes or No)” value ([2]; T 4 weeks, 25° C.) was “No” and the “Physical change (Yes or No)” value ([2]; T 4 weeks, 40° C.) was “No”.
For `CCOCCOCCO` [Diethylene glycol monoethyl ether], the “Physical change (Yes or No)” value ([2]; T 2 weeks, 25° C.) was “No”, the “Physical change (Yes or No)” value ([2]; T 2 weeks, 40° C.) was “No” and the “Physical change (Yes or No)” value ([2]; T 2 weeks, 50° C.) was “No”. The “Physical change (Yes or No)” value ([2]; T 4 weeks, 25° C.) was “No”, the “Physical change (Yes or No)” value ([2]; T 4 weeks, 40° C.) was “No” and the “Physical change (Yes or No)” value ([2]; T 4 weeks, 50° C.) was “No”.
For `CC(O)CO` (stereo not shown) [Propylene glycol], the “Rifaximin % Label Claim (LC)” value ([1]; T0) was 97.9 % Label Claim (LC), the “Rifaximin % Label Claim (LC)” value ([1]; T 2 weeks, 25° C.) was 96.9 % Label Claim (LC) and the “Rifaximin % Label Claim (LC)” value ([1]; T 2 weeks, 40° C.) was 97.0 % Label Claim (LC). The “Rifaximin % Label Claim (LC)” value ([1]; T 2 weeks, 50° C.) was 95.7 % Label Claim (LC), the “Rifaximin % Label Claim (LC)” value ([1]; T 4 weeks, 25° C.) was 96.2 % Label Claim (LC) and the “Rifaximin % Label Claim (LC)” value ([1]; T 4 weeks, 40° C.) was 95.6 % Label Claim (LC). For the same molecule, the “Rifaximin % Label Claim (LC)” value ([1]; T 4 weeks, 50° C.) was 98.6 % Label Claim (LC).
In the case of `OCc1ccccc1` [Benzyl alcohol], the “Rifaximin % Label Claim (LC)” value ([1]; T0) is reported as 99.3 % Label Claim (LC), the “Rifaximin % Label Claim (LC)” value ([1]; T 2 weeks, 25° C.) is reported as 99.8 % Label Claim (LC) and the “Rifaximin % Label Claim (LC)” value ([1]; T 2 weeks, 40° C.) is reported as 96.3 % Label Claim (LC). The “Rifaximin % Label Claim (LC)” value ([1]; T 2 weeks, 50° C.) was 96.9 % Label Claim (LC), the “Rifaximin % Label Claim (LC)” value ([1]; T 4 weeks, 25° C.) was 98.2 % Label Claim (LC) and the “Rifaximin % Label Claim (LC)” value ([1]; T 4 weeks, 40° C.) was 94.0 % Label Claim (LC). For the same molecule, the “Rifaximin % Label Claim (LC)” value ([1]; T 4 weeks, 50° C.) was 93.0 % Label Claim (LC), the “Physical change (Yes or No)” value ([2]; T 2 weeks, 25° C.) was “Yes” and the “Physical change (Yes or No)” value ([2]; T 2 weeks, 40° C.) was “Yes”. The “Physical change (Yes or No)” value ([2]; T 4 weeks, 25° C.) was “Yes” and the “Physical change (Yes or No)” value ([2]; T 4 weeks, 40° C.) was “Yes”.
For `CC(C)OC(=O)CCCCC(=O)OC(C)C` [Diisopropyl adipate], the “Rifaximin % Label Claim (LC)” value ([1]; T0) was 97.6 % Label Claim (LC), the “Rifaximin % Label Claim (LC)” value ([1]; T 2 weeks, 25° C.) was 95.3 % Label Claim (LC) and the “Rifaximin % Label Claim (LC)” value ([1]; T 2 weeks, 40° C.) was 71.3 % Label Claim (LC). The “Rifaximin % Label Claim (LC)” value ([1]; T 2 weeks, 50° C.) was 50.3 % Label Claim (LC), the “Rifaximin % Label Claim (LC)” value ([1]; T 4 weeks, 25° C.) was 95.1 % Label Claim (LC) and the “Rifaximin % Label Claim (LC)” value ([1]; T 4 weeks, 40° C.) was 64.8 % Label Claim (LC). The “Rifaximin % Label Claim (LC)” value ([1]; T 4 weeks, 50° C.) was 30.4 % Label Claim (LC).
With `CCCCC/C=C\C/C=C\CCCCCCCC(=O)OCC(O)CO` (stereo not shown) [Glyceryl monolinoleate] the “Rifaximin % Label Claim (LC)” value ([1]; T0) was 102.7 % Label Claim (LC), the “Rifaximin % Label Claim (LC)” value ([1]; T 2 weeks, 25° C.) was 98.7 % Label Claim (LC) and the “Rifaximin % Label Claim (LC)” value ([1]; T 2 weeks, 40° C.) was 100.0 % Label Claim (LC). The “Rifaximin % Label Claim (LC)” value ([1]; T 2 weeks, 50° C.) was 97.4 % Label Claim (LC), the “Rifaximin % Label Claim (LC)” value ([1]; T 4 weeks, 25° C.) was 100.6 % Label Claim (LC) and the “Rifaximin % Label Claim (LC)” value ([1]; T 4 weeks, 40° C.) was 100.0 % Label Claim (LC). For the same molecule, the “Rifaximin % Label Claim (LC)” value ([1]; T 4 weeks, 50° C.) was 92.9 % Label Claim (LC), the “Physical change (Yes or No)” value ([2]; T 2 weeks, 25° C.) was “No” and the “Physical change (Yes or No)” value ([2]; T 2 weeks, 40° C.) was “No”. For the same molecule, the “Physical change (Yes or No)” value ([2]; T 2 weeks, 50° C.) was “No”, the “Physical change (Yes or No)” value ([2]; T 4 weeks, 25° C.) was “No” and the “Physical change (Yes or No)” value ([2]; T 4 weeks, 40° C.) was “No”. The “Physical change (Yes or No)” value ([2]; T 4 weeks, 50° C.) was “No”, the “Physical change (Yes or No)” value ([3]; T 2 weeks, 25° C.) was “No” and the “Physical change (Yes or No)” value ([3]; T 2 weeks, 40° C.) was “No”. For the same molecule, the “Physical change (Yes or No)” value ([3]; T 2 weeks, 50° C.) was “No”, the “Physical change (Yes or No)” value ([3]; T 4 weeks, 25° C.) was “No” and the “Physical change (Yes or No)” value ([3]; T 4 weeks, 40° C.) was “No”. The “Physical change (Yes or No)” value ([3]; T 4 weeks, 50° C.) was “No”.
In the case of `CCCCCCCC/C=C\CCCCCCCC(=O)OCC(O)CO` (stereo not shown) [Glyceryl monooleate (Type 40), Glyceryl monooleate], the “Rifaximin % Label Claim (LC)” value ([1]; T0) is reported as 92.7 % Label Claim (LC), the “Rifaximin % Label Claim (LC)” value ([1]; T 2 weeks, 25° C.) is reported as 96.4 % Label Claim (LC) and the “Rifaximin % Label Claim (LC)” value ([1]; T 2 weeks, 40° C.) is reported as 58.3 % Label Claim (LC). The “Rifaximin % Label Claim (LC)” value ([1]; T 2 weeks, 50° C.) was 48.9 % Label Claim (LC), the “Rifaximin % Label Claim (LC)” value ([1]; T 4 weeks, 25° C.) was 95.0 % Label Claim (LC) and the “Rifaximin % Label Claim (LC)” value ([1]; T 4 weeks, 40° C.) was 59.0 % Label Claim (LC). The “Rifaximin % Label Claim (LC)” value ([1]; T 4 weeks, 50° C.) was 41.7 % Label Claim (LC), the “Physical change (Yes or No)” value ([2]; T 2 weeks, 25° C.) was “No” and the “Physical change (Yes or No)” value ([2]; T 2 weeks, 40° C.) was “No”. The “Physical change (Yes or No)” value ([2]; T 2 weeks, 50° C.) was “No”, the “Physical change (Yes or No)” value ([2]; T 4 weeks, 25° C.) was “No” and the “Physical change (Yes or No)” value ([2]; T 4 weeks, 40° C.) was “No”. For the same molecule, the “Physical change (Yes or No)” value ([2]; T 4 weeks, 50° C.) was “No”, the “Physical change (Yes or No)” value ([3]; T 2 weeks, 25° C.) was “No” and the “Physical change (Yes or No)” value ([3]; T 2 weeks, 40° C.) was “Yes”. For the same molecule, the “Physical change (Yes or No)” value ([3]; T 2 weeks, 50° C.) was “Yes”, the “Physical change (Yes or No)” value ([3]; T 4 weeks, 25° C.) was “No” and the “Physical change (Yes or No)” value ([3]; T 4 weeks, 40° C.) was “Yes”. For the same molecule, the “Physical change (Yes or No)” value ([3]; T 4 weeks, 50° C.) was “Yes”.

Reference: patent publication US20230398102A1 (Bausch Health Ireland Limited, priority 2020, published 2023)
